Drawing on ChEMBL document CHEMBL4138236, “Trisubstituted barbiturates and thiobarbiturates: Synthesis and biological evaluation as xanthine oxidase inhibitors, antioxidants, antibacterial and anti-proliferative agents” (Eur J Med Chem, 2018), this text covers Activity and MIC for 20 molecules.

Data set [1] can be described thus: Antioxidant activity assessed as DPPH radical scavenging activity at 30 uM after 20 mins by spectrophotometric method relative to control. Type of data set: functional. (In general: Loss of DPPH colour is used to gauge radical scavenging.)
A short description of data set [2]: Antioxidant activity assessed as DPPH radical scavenging activity at 30 uM after 60 mins by spectrophotometric method relative to control. Type of data set: functional.
A further data set relates to MCF7. Nature of the data set: Antiproliferative activity against human MCF7 cells at 30 uM after 72 hrs by MTT assay relative to control. Format: functional. (Tetrazolium dyes change colour on reduction, which living cells bring about.)
The next data set relates to NHDF. Nature of the data set: Antiproliferative activity against NHDF at 30 uM after 72 hrs by MTT assay relative to control. Format: cell-based. Conditions: human.
A further data set has as its system Bacillus cereus. Nature of the data set: Antibacterial activity against Bacillus cereus ATCC 1178 after 24 hrs by broth microdilution method. Format: functional. Conditions: ATCC 1178, 24 h. Background: Dilution methods test growth across graded concentrations, often in twofold steps.
The next data set deals with Staphylococcus aureus. Nature of the data set: Antibacterial activity against Staphylococcus aureus ATCC 25923 after 24 hrs by broth microdilution method. Format: functional. Conditions: ATCC 25923, 24 h.
In a further data set the test system is Escherichia coli. Nature of the data set: Antibacterial activity against Escherichia coli ATCC 25922 after 24 hrs by broth microdilution method. Format: functional. Conditions: ATCC 25922, 24 h.
The subject of the next data set is Klebsiella pneumoniae. Nature of the data set: Antibacterial activity against Klebsiella pneumoniae ATCC 13883 after 24 hrs by broth microdilution method. Type of data set: functional. Conditions: ATCC 13883, 24 h.
The test system of the next data set is Pseudomonas aeruginosa. Nature of the data set: Antibacterial activity against Pseudomonas aeruginosa ATCC 27853 after 24 hrs by broth microdilution method. Type of data set: functional. Conditions: ATCC 27853, 24 h.
A further data set relates to Salmonella typhimurium. Nature of the data set: Antibacterial activity against Salmonella typhimurium ATCC 13311 after 24 hrs by broth microdilution method. Format: functional, Salmonella enterica subsp. enterica serovar Typhimurium. Conditions: Salmonella enterica, ATCC 13311, 24 h.
Another data set concerns Acinetobacter baumannii. Nature of the data set: Antibacterial activity against Acinetobacter baumannii LMG 1025 after 24 hrs by broth microdilution method. Type of data set: functional. Conditions: LMG 1025, 24 h.

Molecules are shown by their SMILES.

By MIC is commonly meant the smallest concentration in the dilution series that meets the test's criterion for growth inhibition. A higher MIC goes with weaker potency. On to `CN1C(=O)C(=CNc2cc([N+](=O)[O-])ccc2Cl)C(=O)N(C)C1=O`, for which the Activity in [1] is -0.82%; in [2], 0%; in the data set on MCF7, 50.07%; in the data set on NHDF, 66.98%. The MIC against Bacillus cereus, in the data set on Staphylococcus aureus, against Escherichia coli, against Klebsiella pneumoniae, in the data set on Pseudomonas aeruginosa and in the data set with Salmonella typhimurium was more than 200 µM each time. The same molecule displayed a minimum inhibitory concentration (MIC) with Acinetobacter baumannii of more than 200 µM.
For `CC(=O)C1C(=O)N(c2ccccc2)C(=S)N(c2ccccc2)C1=O`, the Activity in [1] is -8.55%; in data set [2], -7.43%; in the data set with MCF7 it was 75.32%; with NHDF, 89.63%. The minimum inhibitory concentration (MIC) in the data set on Bacillus cereus, with Staphylococcus aureus, in the data set on Escherichia coli, against Klebsiella pneumoniae, against Pseudomonas aeruginosa and with Salmonella typhimurium was more than 200 µM throughout. The same molecule displayed an MIC in the data set on Acinetobacter baumannii of more than 200 µM.
As to `CN1C(=O)C(=CNC(N)=S)C(=O)N(C)C1=O`, the Activity in data set [1] was found to be 20.3%; in data set [2], 31.9%; in the data set with MCF7, 59.18%; in the data set on NHDF, 84.63%. The minimal inhibitory concentration (MIC) with Bacillus cereus, in the data set with Staphylococcus aureus, with Escherichia coli, in the data set on Klebsiella pneumoniae, against Pseudomonas aeruginosa and in the data set with Salmonella typhimurium was more than 200 µM each time. The molecule further displayed a minimum inhibitory concentration (MIC) with Acinetobacter baumannii of more than 200 µM.
Consider `COc1ccc(CC2C(=O)NC(=O)NC2=O)cc1`, for which the Activity is 10.4% in data set [1], 14% in data set [2], 73.12% with MCF7 and 60.77% with NHDF. Also, the MIC in the data set with Bacillus cereus, with Staphylococcus aureus, against Escherichia coli, against Klebsiella pneumoniae, in the data set with Pseudomonas aeruginosa and against Salmonella typhimurium was more than 200 µM throughout. The molecule also gave a minimum inhibitory concentration (MIC) against Acinetobacter baumannii of more than 200 µM.
Regarding `Oc1ncnc2[nH]ncc12` [ALLOPURINOL], the results for the Activity in [1] and in data set [2] were -6.02% and -5.41%, respectively.
Take `O=C1NC(=S)NC(=O)C1=CNc1ccccc1C(=O)O`: the Activity was -0.56% in data set [1], -0.57% in data set [2], 42.53% in the data set with MCF7 and 79.11% with NHDF. Further, the MIC against Bacillus cereus, against Staphylococcus aureus, in the data set on Escherichia coli, with Klebsiella pneumoniae, with Pseudomonas aeruginosa and in the data set with Salmonella typhimurium was more than 200 µM throughout. In the data set on Acinetobacter baumannii, this molecule returned a minimal inhibitory concentration (MIC) of more than 200 µM.
On to `CC(=O)C1C(=O)NC(=O)NC1=O`, for which the Activity in data set [1] was -6.91%; in [2], -7.28%; in the data set on MCF7, 80.64%; with NHDF it was 124.84%. Further, the minimal inhibitory concentration (MIC) in the data set with Bacillus cereus, with Staphylococcus aureus, against Escherichia coli, against Klebsiella pneumoniae, in the data set on Pseudomonas aeruginosa and against Salmonella typhimurium was more than 200 µM in each case. The molecule also yielded a minimum inhibitory concentration (MIC) with Acinetobacter baumannii of more than 200 µM.
`O=C1NC(=S)NC(=O)C1=CNc1ccccc1Cl`: the Activity in [1] came to 1.12%; in data set [2], 0.92%; in the data set on MCF7, 47.17%; with NHDF it was 65.67%. Besides, the MIC against Bacillus cereus, against Staphylococcus aureus, against Escherichia coli, in the data set on Klebsiella pneumoniae, in the data set on Pseudomonas aeruginosa and in the data set with Salmonella typhimurium was more than 200 µM throughout. Besides, the MIC against Acinetobacter baumannii is more than 200 µM.
Consider `O=C1NC(=S)NC(=O)C1=CNc1cc([N+](=O)[O-])ccc1Cl`, for which the Activity in data set [1] was -4.31%; in data set [2], -3.68%; with MCF7, 63.7%; in the data set with NHDF it was 70.28%. Moreover, the MIC with Bacillus cereus, against Staphylococcus aureus, against Escherichia coli, against Klebsiella pneumoniae, with Pseudomonas aeruginosa and against Salmonella typhimurium was more than 200 µM throughout. In the data set on Acinetobacter baumannii, this molecule registered an MIC of more than 200 µM.
Take `O=C1NC(=O)C(=Cc2ccccc2[N+](=O)[O-])C(=O)N1`: the Activity in [1] was -0.9%; in data set [2], -0.78%; with MCF7 it was 58.88%; in the data set on NHDF, 72.88%. The MIC in the data set on Bacillus cereus, with Staphylococcus aureus, against Escherichia coli, against Klebsiella pneumoniae, with Pseudomonas aeruginosa and in the data set with Salmonella typhimurium was more than 200 µM each time. In the data set with Acinetobacter baumannii, this molecule registered an MIC of more than 200 µM.
As for `O=C(O)c1ccccc1NC=C1C(=O)N(c2ccccc2)C(=S)N(c2ccccc2)C1=O`, the Activity was -2.45% in [1], -2.27% in data set [2], 43.11% with MCF7 and 82.24% with NHDF. Also, the minimal inhibitory concentration (MIC) against Bacillus cereus, against Staphylococcus aureus, against Escherichia coli, with Klebsiella pneumoniae, in the data set with Pseudomonas aeruginosa and against Salmonella typhimurium was more than 200 µM in each case. In the data set with Acinetobacter baumannii, this molecule gave a minimal inhibitory concentration (MIC) of more than 200 µM.
Take `Cn1c([O-])c(C(C#N)c2ccc(Br)cc2)c(=O)n(C)c1=O.[Na+]` (stereo unspecified): the Activity in [1] came out at 0.45%; in data set [2], 1.2%; in the data set on MCF7 it was 79.47%; in the data set on NHDF, 80.09%. Moreover, the minimum inhibitory concentration (MIC) against Bacillus cereus, in the data set on Staphylococcus aureus, against Escherichia coli, with Klebsiella pneumoniae, in the data set on Pseudomonas aeruginosa and in the data set on Salmonella typhimurium was more than 200 µM each time. In the data set on Acinetobacter baumannii, this molecule gave an MIC of more than 200 µM.
Turning to `CC(NNc1ccc([N+](=O)[O-])cc1[N+](=O)[O-])=C1C(=O)NC(=O)NC1=O`, the Activity in [1] was 17.6%; in [2], 18.1%; in the data set with MCF7 it was 50.01%; with NHDF, 79.47%. Besides, the minimum inhibitory concentration (MIC) against Bacillus cereus, in the data set on Staphylococcus aureus, with Escherichia coli, in the data set with Klebsiella pneumoniae, against Pseudomonas aeruginosa and in the data set with Salmonella typhimurium was more than 200 µM throughout. In the data set with Acinetobacter baumannii, this molecule returned an MIC of more than 200 µM.
For the molecule `O=C1NC(=S)NC(=O)C1=CNc1ccccc1[N+](=O)[O-]`, the Activity in data set [1] was -12.5%; in [2], -11.8%; in the data set on MCF7, 80.23%; with NHDF, 78.75%. Further, the minimum inhibitory concentration (MIC) in the data set on Bacillus cereus, against Staphylococcus aureus, against Escherichia coli, against Klebsiella pneumoniae, in the data set with Pseudomonas aeruginosa and in the data set with Salmonella typhimurium was more than 200 µM throughout. In the data set on Acinetobacter baumannii, this molecule returned a minimum inhibitory concentration (MIC) of more than 200 µM.
Regarding `COc1ccc(C=C2C(=O)NC(=O)NC2=O)cc1`, the Activity is -0.97% in data set [1], 2.63% in [2], 78.75% in the data set on MCF7 and 71.59% in the data set on NHDF. The MIC with Bacillus cereus, in the data set with Staphylococcus aureus, against Escherichia coli, with Klebsiella pneumoniae, with Pseudomonas aeruginosa and against Salmonella typhimurium was more than 200 µM in each case. Further, the MIC in the data set with Acinetobacter baumannii is more than 200 µM.
With `NC(=O)NC=C1C(=O)NC(=S)NC1=O`, the Activity in data set [1] was determined as 5.26%; in data set [2], 5.6%; in the data set with MCF7, 104.66%; with NHDF it was 74.57%. Also, the MIC against Bacillus cereus, with Staphylococcus aureus, against Escherichia coli, in the data set with Klebsiella pneumoniae, with Pseudomonas aeruginosa and in the data set with Salmonella typhimurium was more than 200 µM in each case. Besides, the MIC in the data set on Acinetobacter baumannii is more than 200 µM.
In the case of `CN1C(=O)C(=CNc2ccccc2C(=O)O)C(=O)N(C)C1=O`, the Activity in [1] turned out to be 3.37%; in [2], 1.98%; with MCF7, 50.34%; in the data set with NHDF, 71.19%. For the same molecule, the MIC with Bacillus cereus, against Staphylococcus aureus, against Escherichia coli, in the data set on Klebsiella pneumoniae, in the data set with Pseudomonas aeruginosa and against Salmonella typhimurium was more than 200 µM throughout. In the data set on Acinetobacter baumannii, the MIC is more than 200 µM.
In the case of `Nc1ccccc1NC=C1C(=O)NC(=S)NC1=O`, the Activity in data set [1] was 6.1%; in [2], 17.3%; in the data set on MCF7, 64.55%; in the data set with NHDF, 70.13%. Further, the minimal inhibitory concentration (MIC) in the data set with Bacillus cereus, with Staphylococcus aureus, in the data set on Escherichia coli, with Klebsiella pneumoniae, against Pseudomonas aeruginosa and against Salmonella typhimurium was more than 200 µM throughout. The same molecule yielded an MIC with Acinetobacter baumannii of more than 200 µM.
Take `CC(NN)=C1C(=O)NC(=O)NC1=O`: the Activity in [1] stood at 11.6%; in data set [2] it was 25.4%; with MCF7, 98.27%; with NHDF, 82.68%. For the same molecule, the MIC against Bacillus cereus, against Staphylococcus aureus, in the data set on Escherichia coli, against Klebsiella pneumoniae, in the data set with Pseudomonas aeruginosa and against Salmonella typhimurium was more than 200 µM throughout. For the same molecule, the MIC with Acinetobacter baumannii was more than 200 µM.
Regarding `NC(=O)NC=C1C(=O)NC(=O)NC1=O`, the Activity was -5.19% in data set [1], -5.32% in data set [2], 55.71% with MCF7 and 78.89% in the data set with NHDF. For the same molecule, the minimal inhibitory concentration (MIC) in the data set with Bacillus cereus, against Staphylococcus aureus, against Escherichia coli, with Klebsiella pneumoniae, against Pseudomonas aeruginosa and with Salmonella typhimurium was more than 200 µM throughout. The molecule also registered an MIC against Acinetobacter baumannii of more than 200 µM.
